Measured values reported in patent US6916840B2, “Spla2 inhibitors” (Eli Lilly and Company, priority 2000, dated 2005).

test system: not given; assay: not given; conditions: not given

SMILES | melting point [°C]
CCc1c(C(=O)C(N)=O)c2c(OCC(=O)OC)cc3ccccc3c2n1Cc1ccccc1 (hydrate or solvate) [Example 1, 2-[[3-(2-Amino-1,2-dioxoethyl)-2-ethyl-1-benzyl-1H-benz[g]indol-4-yl]oxy]acetic acid methyl ester hemihydrate] | 165 to 167

target: T1, recombinant human secreted phospholipase A2 (sPLA2) (Homo sapiens, UniProt P14555); assay: chromogenic assay for inhibitors of recombinant human secreted phospholipase A2; assay type: biochemical; conditions: diheptanoyl thio-PC substrate 1 mM, Triton X-100 mixed micelles, pH 7.5, 40° C. for 30 minutes, absorbance at 405 nm, triplicate
T1 sequence (P14555 21-144): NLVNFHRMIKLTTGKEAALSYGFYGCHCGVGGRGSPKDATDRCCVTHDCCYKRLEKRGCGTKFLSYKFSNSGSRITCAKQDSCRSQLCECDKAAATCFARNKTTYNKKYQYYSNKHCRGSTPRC
From the text: The following chromogenic assay procedure was used to identify and evaluate inhibitors of recombinant human secreted phospholipase A2. The assay described herein has been adapted for high volume screening using 96 well microtiter plates. A general description of this assay method is found in the article, “Analysis of Human Synovial Fluid Phospholipase A2 on Short Chain Phosphatidylcholine-Mixed Micelles: Development of a Spectrophotometric Assay Suitable for a Microtiterplate Reader”, by Laure J. Reynolds, Lori L. Hughes, and Edward A Dennis, Analytical Biochemistry, 204, pp. 190-197, 1992 (the disclosure of which is incorporated herein by reference):
A measured volume of racemic dipheptanoyl thio PC supplied in chloroform at a concentration of 100 mg/ml is taken to dryness and redissolved in 10 millimolar TRITON X-100™ nonionic detergent aqueous solution. Reaction Buffer is added to the solution, then DTNB to give the Reaction Mixture.
The reaction mixture thus obtained contains 1 mM diheptanoly thio-PC substrate, 0.29 mm Triton X-100™ detergent, and 0.12 mm DTMB in a buffered aqueous solution at pH 7.5.
• 1. Add 0.2 ml reaction mixture to all wells; • 2. Add 10 ul test compound (or solvent blank) to appropriate wells, mix 20 seconds; • 3. Add 50 nanograms of sPLA2 (10 microliters) to appropriate wells; • 4. Incubate plate at 40° C. for 30 minutes; • 5. Read absorbance of wells at 405 nanometers with an automatic plate reader.
Tests were done in triplicate. Typically, compounds were tested at a final concentration of 5 ug/ml. […] Lack of color development at 405 nanometers evidenced inhibition. Compounds initially found to be active were re-assayed to confirm their activity and, if sufficiently active, IC50 values were determined. […] In all cases, % inhibition measured at 405 nanometers generated by enzyme reactions containing inhibitors relative to the uninhibited control reactions was determined. Each sample was titrated in triplicate and result values were averaged for plotting and calculation of IC50 values. IC50 values were determined by plotting log concentration versus inhibition values in the range from 10-90% inhibition.

SMILES | IC50 [µM]
Cc1c(C(=O)C(N)=O)c2c(OCC(=O)O)cc3ccccc3c2n1Cc1cccc(-c2ccc(F)cc2)c1 [Example 6, 2-[[3-(2-Amino-1,2-dioxoethyl)-2-methyl-1-[3-(4-fluorophenyl)benzyl]-1H-benz[g]indol-4-yl]oxy]acetic acid.] | 0.021
CCc1c(C(=O)C(N)=O)c2c(OCC(=O)OC)cc3ccccc3c2n1Cc1ccccc1 [Example 1, 2-[[3-(2-Amino-1,2-dioxoethyl)-2-ethyl-1-benzyl-1H-benz[g]indol-4-yl]oxy]acetic acid methyl ester hemihydrate] | 0.048
COC(=O)COc1cc2ccccc2c2c1c(C(=O)C(N)=O)c(C)n2Cc1cccc(-c2ccc(F)cc2)c1 [Example 5, 2-[[3-(2-Amino-1,2-dioxoethyl)-2-methyl-1-[3-(4-fluorophenyl)benzyl]-1H-benz[g]indol-4-yl]oxy]acetic acid methyl ester] | 0.176
COC(=O)COc1cc2ccccc2c2c1c(C(=O)C(N)=O)c(C)n2CC1CCCCC1 [Example 3, 2-[[3-(2-amino-1,2-dioxoethyl)-2-methyl-1-cyclohexylmethyl-1H-benz[g]indol-4-yl]oxy]acetic acid methyl ester] | 0.148
CCc1c(C(=O)C(N)=O)c2c(OCC(=O)O)cc3ccccc3c2n1Cc1ccccc1 [Example 2, 2-[[3-(2-Amino-1,2-dioxoethyl)-2-ethyl-1-benzyl-1H-benz[g]indol-4-yl]oxy]acetic acid] | 0.01
Cc1c(C(=O)C(N)=O)c2c(OCC(=O)O)cc3ccccc3c2n1CC1CCCCC1 [Example 4, 2-[[3-(2-Amino-1,2-dioxoethyl)-2-methyl-1-cyclohexylmethyl-1H-benz[g]indol-4-yl]oxy]acetic acid] | 0.011
